{
  "source": "patent US20210186930A1",
  "about": "“Methods of Treating Renal Disease Associated With Chronic Kidney Disease Such as Alport Syndrome” (UNIVERSITY OF MIAMI, priority 2018, published 2021)",
  "key": {"[1]": {"tested_on": "Col4a3 knockout mice", "assay": "Renal function and body weight in Col4a3 knockout mice treated with ezetimibe (FIG. 3)", "type": "in vivo, mouse", "protocol": "(§1) Mouse models: Mice in which exon 5 of a3 chain of collagen type IV is deleted (Col4a3 KO) were obtained from the Jackson Laboratory (#002908, 129-Col4a3tm1Dec/J). Col4a3 heterozygous littermates were bred to generate Col4a3 KO mice. Four groups of mice with n=3-10 per group were studied. The four groups consisted of: 1) wildtype controls+vehicle, 2) wildtype controls+ezetimibe, 3) Col4a3 KO+vehicle, 4) Col4a3 KO+ezetimibe. ezetimibe was administered by oral gavage daily starting at 4 weeks of age at a concentration of 5 mg/kg body weight. […] Mice were sacrificed at 8 weeks of age when progression to end-stage renal failure had occurred.\nAlbumin/creatinine ratio: All albuminuria values are expressed as μg albumin/mg creatinine. Albumin/creatinine determined by ELISA (Bethyl Laboratories) for albumin detection and a biochemical assay based on the Jaffe method for creatinine detection (Stanbio) as previously described.\n(§2) Serology: Immediately prior to sacrifice, a blood sample was collected for the determination of BUN and lipid panel analysis in the comparative laboratory core facility of the University of Miami. Serum creatinine was determined by tandem mass spectrometry (UAB-UCSD O'Brien Core Center, University of Alabama)."}, "[2]": {"tested_on": "Col4a3 knockout mice", "assay": "Fibrosis, lipid droplets, serum and kidney cortex lipids, CD36 in Col4a3 knockout mice treated with ezetimibe (FIG. 4)", "type": "in vivo, mouse", "protocol": "Determination of cholesterol content in kidney cortex: Tissue from kidney cortexes was homogenized in hypotonic buffer (10 mM HEPES pH7.0, 15 mM KCl, 1 mM MgCl2, 10 mM phosphatase inhibitors). Lipids from 100 μl of the homogenate were extracted with 1 ml of hexane:isopropanol (3:2, v/v), dried and reconstituted in 100 μl of isopropanol-NP40 (9:1, v/v). Tissue fractions not soluble in the organic solvent, were further dried, reconstituted in 8 M urea, and assayed for protein concentration using Pierce BCA protein assay kit (ThermoFisher Scientific, MA, USA). Total cholesterol from lipid extracts was determined by the enzymatic method as previously described (Robinet, P., Wang, Z., Hazen, S. L. & Smith, J. D. A simple and sensitive enzymatic method for cholesterol quantification in macrophages and foam cells. Journal of lipid research 51, 3364-3369, 2010). Briefly, endogenous peroxides present were eliminated by incubating samples and standards with catalase (Sigma-Aldrich, MO, USA), 45 U/ml final concentration, for 15 min at 37° C. Then, 50 μl of samples and standards were mixed with 50 μl of reagent A (2 U/ml cholesterol oxidase (Sigma-Aldrich, MO, USA), 0.6 U/ml cholesterol esterase (MP Biomedicals), 2 U/ml HRP (Sigma), 100 μM Amplex Red (ThermoFisher Scientific, MA, USA) in black 96-well plates. The plates were incubated at 37° C. for 30 min and fluorescence was read at 530 nm (Ex) and 580 nm (Em) in a plate reader (SpectraMax M5, Molecular Devices, CA, USA). Cholesteryl esters (CE) quantification was based on the method described from Toshimi M, et al. Briefly, 25 μl of samples was mixed with 150 μl of free cholesterol decomposition reagent (45 U/ml catalase, 1 U/ml cholesterol oxidase) and incubated 2-4 h at 37° C., and then the final volume was brought up to 250 μl prior to determining free and total cholesterol remaining. Total cholesterol remaining was determined by mixing 50 μl of end product reaction with 50 μl of reagent A, as described above. Free cholesterol remaining was determined similarly, but without including cholesterol esterase in the reagent. CE was calculated by the formula CE=(TC−FC)×DF, where TC is the total cholesterol remaining, FC the free cholesterol remaining and DF the dilution factor, in this case, 10.\nLipid content: Oil Red 0 staining was performed on frozen tissue sections and triglyceride content was determined on snap frozen kidney tissue as described above.\nas §1, §2\nPicrosirius red staining: Paraffin-embedded sections (4 μm thick) were deparaffinized with xylene and a graded alcohol series. Sections were rinsed for 5 min in distilled water, stained for 1 hour with picrosirius red in saturated aqueous picric acid, examined under a light microscope and photomicrographs were taken. Histological images were visualized using a light microscope (Olympus BX 41, Tokyo, Japan) at 40× magnification and analyzed using Image J software."}, "[3]": {"conditions": "ambient temperature; cited from earlier work"}, "[4]": {"conditions": "ezetimibe 5 mg/kg oral gavage daily, sacrifice at 8 weeks"}, "[5]": {"conditions": "Col4a3 knockout mice, ezetimibe treated vs untreated"}},
  "data": [
    {"molecule": "O=C1[C@H](CC[C@H](O)c2ccc(F)cc2)[C@@H](c2ccc(O)cc2)N1c1ccc(F)cc1", "note": "[ezetimibe]", "values": [
      {"measurement": "body weight", "setting": "[1]; ezetimibe 5 mg/kg oral gavage daily", "value": "prevents body weight loss"},
      {"measurement": "albumin/creatinine ratio", "setting": "[1]; ezetimibe 5 mg/kg oral gavage daily from 4 weeks of age, vs untreated Col4a3 knockout mice", "value": "significant reduction in the albumin/creatinine ratio"},
      {"measurement": "serum BUN levels", "setting": "[1]; [4]", "value": "prevents increases in serum BUN levels"},
      {"measurement": "serum creatinine levels", "setting": "[1]; [4]", "value": "significantly reduces serum creatinine levels"},
      {"measurement": "total cholesterol levels in kidney cortexes", "setting": "[2]; Col4a3 knockout mice, ezetimibe treated or untreated", "value": "No change in total cholesterol levels"},
      {"measurement": "fibrosis (PicroSirius Red staining)", "setting": "[2]; [5]", "value": "significant reduction of fibrosis"},
      {"measurement": "glomerular lipid droplets (Oil Red O staining)", "setting": "[2]; [5]", "value": "significant reduction of glomerular lipid droplets"},
      {"measurement": "serum triglyceride levels", "setting": "[2]; [5]", "value": "significantly decreased"},
      {"measurement": "total serum cholesterol levels", "setting": "[2]; [5]", "value": "significantly decreased"},
      {"measurement": "triglyceride content in kidney cortexes", "setting": "[2]; [5]", "value": "significantly reduces triglyceride content"},
      {"measurement": "CD36 expression", "setting": "[2]; ezetimibe treated Col4a3 knockout mice (untreated knockout also increased)", "value": "significantly increased"},
      {"measurement": "ratio of esterified to total cholesterol in kidney cortexes", "setting": "[2]; ezetimibe treated Col4a3 knockout mice compared to controls (untreated knockout also increased)", "value": "significantly increased"},
      {"measurement": "stability", "setting": "[3]", "value": "stable"}
    ]}
  ]
}
